According to patent publication US6515140B2, “Fused pyrrolecarboxamides; a new class of GABA brain receptor ligands” (Neurogen Corporation, priority 1996, dated 2003):

Columns and labels:
GABAa receptor = GABAa receptor binding assay (3H-RO15-1788 displacement); settings: rat cortical tissue homogenate; radioligand 0.5 nM 3H-RO15-1788 [3H-Flumazenil]; 30 min at 4° C.
Method: The pharmaceutical utility of compounds of this invention are indicated by the following assay for GABAa receptor binding activity.
Assays are carried out as described in Thomas and Tallman (J. Bio. Chem. 156:9838-9842 , J. Neurosci. 3:433-440, 1983). Rat cortical tissue is dissected and homogenized in 25 volumes (w/v) of 0.05 M Tris HCl buffer (pH 7.4 at 4° C.). The tissue homogenate is centrifuged in the cold (4°) at 20,000×g for 20′. The supernatant is decanted and the pellet is rehomogenized in the same volume of buffer and again centrifuged at 20,000×g. The supernatant is decanted and the pellet is frozen at −20° C. overnight. The pellet is then thawed and rehomogenized in 25 volume (original wt/vol) of buffer and the procedure is carried out twice. The pellet is finally resuspended in 50 volumes (w/vol of 0.05 M Tris HCl buffer (pH 7.4 at […]).
Incubations contain […] of tissue homogenate, […] of radioligand 0.5 nM (^3H-RO15-1788 [^3H-Flumazenil] specific activity 80 Ci/mmol), drug or blocker and buffer to a total volume of […]. Incubations are carried for 30 min at 4° C. then are rapidly filtered through GFB filters to separate free and bound ligand. Filters are washed twice with fresh 0.05 M Tris HCl buffer (pH 7.4 at 4° C.) and counted in a liquid scintillation counter. […] diazepam is added to some tubes to determine nonspecific binding. Data are collected in triplicate determinations, averaged and % inhibition of total specific binding is calculated. Total Specific Binding=Total−Nonspecific. In some cases, the amounts of unlabeled drugs is varied and total displacement curves of binding are carried out.

SMILES | melting point | Ki (GABAa receptor)
NCc1ccc(NC(=O)c2c[nH]c3c2C(=O)CCC3)cc1 [Compound 6, N-[4-(Aminomethyl)phenyl]-4-oxo-4,5,6,7-tetrahydro-1H-indole-3-carboxamide] | > 200 °C (dec.) | 9 nM
O=C(Nc1ccc(CNC2CC2)cc1)c1c[nH]c2c1C(=O)CCC2 [Compound 5, N-[4-(Cyclopropylaminomethyl)phenyl]-4-oxo-4,5,6,7-tetrahydro-1H-indole-3-carboxamide] | 171 to 173 °C | 9 nM
O=C(Nc1ccc2c(c1)NCC2)c1c[nH]c2c1C(=O)CCC2 [Compound 13, N-(2,3-Dihydro-1H-indol-6-yl)-4-oxo-4,5,6,7-tetrahydro-1H-indole-3-carboxamide] | 322 to 323 °C | 24 nM
CC1CC(=O)c2c(C(=O)Nc3ccc(OCCO)cc3)c[nH]c2C1 (centres unmarked) [Compound 9, N-[4-(2-Hydroxyethoxy)phenyl]-4-oxo-6-methyl-4,5,6,7-tetrahydro-1H-indole-3-carboxamide] | 245 to 247 °C | 1.3 nM
O=C(Nc1ccc(OCCO)nc1)c1c[nH]c2c1C(=O)CCC2 [Compound 14] | – | 3 nM
O=C(Nc1ccc2c(c1)OCCO2)c1c[nH]c2c1C(=O)CCC2 [Compound 11, N-(2,3-Dihydro-1,4-benzodioxin-6-yl)-4-oxo-4,5,6,7-tetrahydro-1H-indole-3-carboxamide] | 254 to 256 °C | 7 nM
O=C(Nc1ccc2c(c1)OCCO2)c1c[nH]c2c1C(=O)CCCC2 [Compound 12, N-(2,3-Dihydro-1,4-benzodioxin-6-yl)-4-oxo-1,4,5,6,7,8-hexahydro-cyclohepta[b]pyrrole-3-carboxamide] | 222 to 223 °C | 5 nM
CC1(C)CC(=O)c2c(C(=O)Nc3cccc(CO)c3)c[nH]c2C1 [Compound 8, N-[3-(Hydroxymethyl)phenyl]-4-oxo-6,6-dimethyl-4,5,6,7-tetrahydro-1H-indole-3-carboxamide] | 233 to 235 °C | 27 nM
CNCc1ccc(NC(=O)c2c[nH]c3c2C(=O)CCC3)c(F)c1 [Compound 3, N-[2-Fluoro-4-(methylaminomethyl)phenyl]-4-oxo-4,5,6,7-tetrahydro-1H-indole-3-carboxamide] | 186 to 188 °C | 49 nM
COCc1ccc(NC(=O)c2c[nH]c3c2C(=O)CCC3)cc1 [Compound 18, N-[4-(Methoxymethyl)phenyl]-4-oxo-4,5,6,7-tetrahydro-1H-indole-3-carboxamide] | 164 to 165 °C | –
O=C(O)COc1ccc(NC(=O)c2c[nH]c3c2C(=O)CCC3)cc1F [Compound 223, N-[3-Fluoro-4-(2-hydroxy-2-oxoethoxy)phenyl]-4-oxo-4,5,6,7-tetrahydro-1H-indole-3-carboxamide] | 246 to 248 °C | –
CC(C)(C)NCCOc1ccncc1NC(=O)c1c[nH]c2c1C(=O)CCC2 [Compound 112, N-[4-(2-t-Butylaminoethoxy)pyrid-3-yl]-4-oxo-4,5,6,7-tetrahydro-1H-indole-3-carboxamide] | 274 to 278 °C | –
CC1(C)CCc2[nH]cc(C(=O)Nc3ccc4c(c3)OCCO4)c2C1=O [Compound 37, N-(2,3-Dihydro-1,4-benzodioxin-6-yl)-4-oxo-5,5-dimethyl-4,5,6,7-tetrahydro-1H-indole-3-carboxamide] | 241 to 243 °C | –
CC(C)NCc1ccc(NC(=O)c2c[nH]c3c2C(=O)CCC3)cc1 [Compound 22, N-[4-(Isopropylaminomethyl)phenyl]-4-oxo-4,5,6,7-tetrahydro-1H-indole-3-carboxamide] | 164 to 166 °C | –
CC(C)NCCOc1ccc(NC(=O)c2c[nH]c3c2C(=O)CCC3)cc1 [Compound 69, N-[4-(2-Isopropylaminoethoxy)phenyl]-4-oxo-4,5,6,7-tetrahydro-1H-indole-3-carboxamide] | 284 to 286 °C | –
CCN(CC)C(=O)COc1ccc(NC(=O)c2c[nH]c3c2C(=O)CCC3)cc1F [Compound 225, N-[3-Fluoro-4-(2-diethylamino-2-oxoethoxy)phenyl]-4-oxo-4,5,6,7-tetrahydro-1H-indole-3-carboxamide] | 193 to 196 °C | –

SMILES | melting point | Ki (GABAa receptor)
Cl.O=C(Nc1ccc(OCC2CCCNC2)cc1)c1c[nH]c2c1C(=O)CCC2 (centres unmarked) | 196 to 199 °C | –
CCN(CC)CCN(CC)C(=O)COc1ccc(NC(=O)c2c[nH]c3c2C(=O)CCC3)cc1 | 165 to 167 °C | –
O=C(Nc1ccc2c(c1)NCCO2)c1c[nH]c2c1C(=O)CCC2 [Compound 33, N-(3,4-Dihydro-2H-1,4-benzoxazin-6-yl)-4-oxo-4,5,6,7-tetrahydro-1H-indole-3-carboxamide] | 216 °C | –
COCCOc1ccc(NC(=O)c2c[nH]c3c2C(=O)CCC3)cc1 [Compound 2, N-[4-(Methoxyethoxy)phenyl]-4-oxo-4,5,6,7-tetrahydro-1H-indole-3-carboxamide] | – | 29 nM
O=C(Nc1ccc(OCCN2CCCC2)cc1)c1c[nH]c2c1C(=O)CCC2 [Compound 90, N-[4-(2-Pyrrolidin-1-ylethoxy)phenyl]-4-oxo-4,5,6,7-tetrahydro-1H-indole-3-carboxamide] | 164 to 168 °C | –
O=C(Nc1ccc(OC[C@@H]2CCCN2)cc1)c1c[nH]c2c1C(=O)CCC2 [Compound 85, N-{4-[(S)-Pyrrolidin-2-ylmethoxy]phenyl}-4-oxo-4,5,6,7-tetrahydro-1H-indole-3-carboxamide] | 165 to 167 °C | –
O=C(Nc1ccc2c(c1)OCO2)c1c[nH]c2c1C(=O)CCCC2 [Compound 39, N-(1,3-Benzodioxol-5-yl)-4-oxo-1,4,5,6,7,8-hexahydro-cyclohepta[b]pyrrole-3-carboxamide] | 210 to 212 °C | –
CN(C)Cc1ccc(NC(=O)c2c[nH]c3c2C(=O)CCC3)cc1 [Compound 23, N-[4-(Dimethylaminomethyl)phenyl]-4-oxo-4,5,6,7-tetrahydro-1H-indole-3-carboxamide] | 216 to 218 °C | –
CCNCc1ccc(NC(=O)c2c[nH]c3c2C(=O)CCC3)cc1 [Compound 21, N-[4-(Ethylaminomethyl)phenyl]-4-oxo-4,5,6,7-tetrahydro-1H-indole-3-carboxamide] | 194 to 195 °C | –
CNCc1cccc(NC(=O)c2c[nH]c3c2C(=O)CCC3)c1 [Compound 1, N-[3-(Methylaminomethyl)phenyl]-4-oxo-4,5,6,7-tetrahydro-1H-indole-3-carboxamide] | 130 to 132 °C | 90 nM
CNCc1ccc(NC(=O)c2c[nH]c3c2C(=O)CCC3)cc1 [Compound 19, N-[4-(Methylaminomethyl)phenyl]-4-oxo-4,5,6,7-tetrahydro-1H-indole-3-carboxamide] | 217 to 219 °C | –
O=C(Nc1ccc2c(c1)OCO2)c1c[nH]c2c1C(=O)CCC2 [Compound 10, N-(1,3-Benzodioxol-5-yl)-4-oxo-4,5,6,7-tetrahydro-1H-indole-3-carboxamide] | 248 to 249 °C | 37 nM
CNCCc1ccc(NC(=O)c2c[nH]c3c2C(=O)CCC3)cc1 [Compound 4, N-[4-(2-Methylaminoethyl)phenyl]-4-oxo-4,5,6,7-tetrahydro-1H-indole-3-carboxamide] | 197 to 200 °C | 0.24 nM
CNCc1ccc(NC(=O)c2c[nH]c3c2C(=O)CCCC3)cc1 [Compound 7] | 173 to 175 °C | 30 nM
CN1CCC(COc2ccncc2NC(=O)c2c[nH]c3c2C(=O)CCC3)C1 (centres unmarked) [Compound 131, N-{4-[(1-Methyl-pyrrolidin-3-yl)methoxy]pyrid-3-yl}-4-oxo-4,5,6,7-tetrahydro-1H-indole-3-carboxamide] | 209 to 211 °C | –
O=C(Nc1cnccc1OCc1cccnc1)c1c[nH]c2c1C(=O)CCCC2 [Compound 194, N-[4-(Pyrid-3-ylmethoxy)pyrid-3-yl]-4-oxo-1,4,5,6,7,8-hexahydro-cyclohepta[b]pyrrole-3-carboxamide] | 241 to 243 °C | –
